Measurements as given in publication PMC11539244, “Relative inhibitory activities of newly developed diazabicyclooctanes, boronic acid derivatives, and penicillin-based sulfone β-lactamase inhibitors against broad-spectrum AmpC β-lactamases” (Antimicrobial Agents and Chemotherapy, 2024).
Like-named read-outs stand apart in the source and are kept apart here.

Legend:
ACC-1 = ACC-1 (Hafnia alvei, UniProt Q9XB24); assay: IC50 of β-lactamase inhibitors, crude extract, ACC-1; assay type: biochemical
FOX-5 = FOX-5 (Aeromonas allosaccharophila, UniProt Q9F4K3); assay: IC50 of β-lactamase inhibitors, crude extract, FOX-5; assay type: biochemical
ACT-7 = ACT-7 (Enterobacter asburiae, UniProt B6V6L3); assay: biochemical
ACT-17 = ACT-17 (Enterobacter asburiae, UniProt P05364); assay type: biochemical; conditions: crude extract of E. coli TOP10 recombinant strain, mean of triplicate
CMY-2 = target: T1, CMY-2 (Klebsiella pneumoniae, UniProt Q48434); assay: biochemical; set-up: species or system Citrobacter spp.
T1 construct: made in house; host or cells: E. coli TOP10, plasmid pUCp24

CMY-42 = target: T2, CMY-42 (Klebsiella pneumoniae, UniProt Q48434, V231S); assay: biochemical; set-up: species or system Citrobacter spp.
T2 construct: made in house; host or cells: E. coli TOP10, plasmid pUCp24

DHA-1 = DHA-1 (Morganella morganii, UniProt P94958); assay: IC50 of β-lactamase inhibitors, crude extract, DHA-1; assay type: biochemical
LAT-1 = LAT-1 (Citrobacter portucalensis, UniProt Q48443); assay: biochemical
MOX-2 = MOX-2 (Aeromonas caviae, UniProt Q9L3G2); assay: IC50 of β-lactamase inhibitors, crude extract, MOX-2; assay type: biochemical
MIR-17 = assay: IC50 of β-lactamase inhibitors, crude extract, MIR-17; assay type: biochemical, Enterobacter roggenkampii; conditions: crude extract of E. coli TOP10 recombinant strain, mean of triplicate
Ear-1 = Ear-1 (Klebsiella aerogenes, UniProt A0A0H3FRQ3); assay: IC50 of β-lactamase inhibitors, crude extract, Ear-1; assay type: biochemical
SRT-1 = SRT-1 (Serratia marcescens, UniProt P18539); assay: IC50 of β-lactamase inhibitors, crude extract, SRT-1; assay type: biochemical; conditions: crude extract of E. coli TOP10 recombinant strain, mean of triplicate
PDC-1 = target: T3, PDC-1 (Pseudomonas aeruginosa, UniProt P24735); assay: biochemical; set-up: species or system P. aeruginosa
T3 construct: made in house; host or cells: E. coli TOP10, plasmid pUCp24

PDC-5 = target: T4, PDC-5 (Pseudomonas aeruginosa, UniProt P24735, R79Q/T105A); assay: biochemical; set-up: species or system P. aeruginosa
T4 construct: made in house; host or cells: E. coli TOP10, plasmid pUCp24

PDC-382 = PDC-382 (Pseudomonas aeruginosa, UniProt P24735, T96I); assay: biochemical; set-up: species or system P. aeruginosa
ADC-50 = ADC-50 (Acinetobacter baumannii, UniProt Q6DRA1); assay: IC50 of β-lactamase inhibitors, crude extract, ADC-50; assay type: biochemical, A. baumannii; conditions: ADC-50, crude extract of E. coli TOP10 recombinant strain, mean of triplicate
YRC-1 = YRC-1 (Yersinia ruckeri, UniProt Q20I87); assay: IC50 of β-lactamase inhibitors, crude extract, YRC-1; assay type: biochemical
E. coli TOP10 [1] = test system: E. coli TOP10; set-up: method as in PMID 38727224; conditions: inhibitor alone, previous study; cited from earlier work
E. coli ATCC 25922 = assay: MIC by broth microdilution, E. coli ATCC 25922; assay type: cell-based; conditions: Escherichia coli
Procedure: (§1) MICs were determined in triplicate by broth microdilution (BMD) for CAZ and AMX, as well as their combinations with each β-lactamase inhibitor. CAZ, AMX, and CLA were purchased from Sigma-Aldrich (St. Louis, MO, USA). All others inhibitors (TAZ HY-W009168, AVI HY-14879, REL HY-16752, VAB HY-19930, NAC HY-109008, ZID HY-120859, TAN HY-109124, XER HY-136072, DUR HY-117974, EMT HY-103095) were purchased from MedChem Express (Luzern, Switzerland). The concentration of each β-lactamase inhibitor was chosen as the concentration used in the respective BL/BLI combination under development or commercially available, according to EUCAST or CLSI ([18], [19]). […] BMD assays were performed in cation-adjusted Mueller-Hinton (MH) broth (Bio-Rad, Marnes-la-Coquette, France) for all antibiotics or antibiotic combinations listed above, according to the EUCAST guidelines ([20]).

[2] = test system: E. coli ACC-1 (E. coli TOP10 recombinant strain); assay: microbe, parasite or virus in culture; assay type: cell-based; conditions: Escherichia coli, read-out: MICs
Procedure: (§2) In order to assess the relative inhibitory activities of those BLI against AmpC β-lactamases, the corresponding blaampC genes without the original promoter sequences were amplified by PCR with specific primers, and corresponding amplicons were cloned into plasmid pUCp24, as described previously ([12], [13]). […] Cultures of E. coli TOP10 harboring recombinant plasmids and therefore producing the different AmpC tested were grown overnight at 37°C in Luria-Bertani agar medium containing amoxicillin (AMX) (50 µg/mL). The activity of the following acquired class C β-lactamases could therefore be evaluated, namely, ACC-1 (originally from Hafnia spp.), FOX-5 (from Aeromonas allosaccharophila), CMY-2 and CMY-42 (from Citrobacter spp.), DHA-1 (from Morganella morganii), ACT-7 and ACT-17 (from Enterobacter asburiae), MIR-17 (from Enterobacter roggenkampii), MOX-2 (from Aeromonas caviae), and LAT-1 (from Citrobacter portucalensis) ([5]). […] Altogether, these enzymes were chosen as representatives of clinically relevant class C β-lactamases being sources of intrinsic or acquired resistance to broad-spectrum β-lactams among most of the commonly identified Gram-negative bacteria in clinical practice.
as §1

[3] = test system: E. coli ACT-17 (E. coli TOP10 recombinant strain); assay: microbe, parasite or virus in culture; assay type: cell-based; conditions: Escherichia coli, read-out: MICs
Procedure: as §2, §1

[4] = test system: E. coli ACT-7 (E. coli TOP10 recombinant strain); assay: microbe, parasite or virus in culture; assay type: cell-based; conditions: Escherichia coli, read-out: MICs
Procedure: as §2, §1

[5] = test system: E. coli CMY-2 (E. coli TOP10 recombinant strain); assay: microbe, parasite or virus in culture; assay type: cell-based; conditions: Escherichia coli, read-out: MICs
Procedure: as §2, §1

[6] = test system: E. coli CMY-42 (E. coli TOP10 recombinant strain); assay: microbe, parasite or virus in culture; assay type: cell-based; conditions: Escherichia coli, read-out: MICs
Procedure: as §2, §1

[7] = test system: E. coli DHA-1 (E. coli TOP10 recombinant strain); assay: microbe, parasite or virus in culture; assay type: cell-based; conditions: Escherichia coli, read-out: MICs
Procedure: as §2, §1

[8] = test system: E. coli Ear-1 (E. coli TOP10 recombinant strain); assay: microbe, parasite or virus in culture; assay type: cell-based; conditions: Escherichia coli, read-out: MICs
Procedure: as §2, §1

[9] = test system: E. coli FOX-5 (E. coli TOP10 recombinant strain); assay: microbe, parasite or virus in culture; assay type: cell-based; conditions: Escherichia coli, read-out: MICs
Procedure: as §2, §1

[10] = test system: E. coli LAT-1 (E. coli TOP10 recombinant strain); assay: microbe, parasite or virus in culture; assay type: cell-based; conditions: Escherichia coli, read-out: MICs
Procedure: as §2, §1

[11] = test system: E. coli MIR-17 (E. coli TOP10 recombinant strain); assay: microbe, parasite or virus in culture; assay type: cell-based; conditions: Escherichia coli, read-out: MICs
Procedure: as §2, §1

[12] = test system: E. coli MOX-2 (E. coli TOP10 recombinant strain); assay: microbe, parasite or virus in culture; assay type: cell-based; conditions: Escherichia coli, read-out: MICs
Procedure: as §2, §1

[13] = test system: E. coli PDC-1 (E. coli TOP10 recombinant strain); assay: microbe, parasite or virus in culture; assay type: cell-based; conditions: Escherichia coli, read-out: MICs
Procedure: as §2, §1

[14] = test system: E. coli PDC-382 (E. coli TOP10 recombinant strain); assay: microbe, parasite or virus in culture; assay type: cell-based; conditions: Escherichia coli, read-out: MICs
Procedure: as §2, §1

[15] = test system: E. coli PDC-5 (E. coli TOP10 recombinant strain); assay: microbe, parasite or virus in culture; assay type: cell-based; conditions: Escherichia coli, read-out: MICs
Procedure: as §2, §1

[16] = test system: E. coli SRT-2 (E. coli TOP10 recombinant strain); assay: microbe, parasite or virus in culture; assay type: cell-based; conditions: Escherichia coli, read-out: MICs
Procedure: as §2, §1

E. coli TOP10 [17] = assay: microbe, parasite or virus in culture; assay type: cell-based; conditions: Escherichia coli
Procedure: as §2, §1

[18] = test system: E. coli YRC-1 (E. coli TOP10 recombinant strain); assay: microbe, parasite or virus in culture; assay type: cell-based; conditions: Escherichia coli, read-out: MICs
Procedure: as §2, §1

[19] = test system: E. coli ADC-50 (E. coli TOP10 recombinant strain); assay: microbe, parasite or virus in culture; assay type: cell-based, Escherichia coli; conditions: Escherichia coli, read-out: MICs
Procedure: as §2, §1

[20] = test system: Escherichia coli NCTC 13353 (CTX-M-15, OXA-1); assay: QC susceptibility testing (MIC), E. coli NCTC 13353; assay type: cell-based; conditions: NCTC13353, read-out: Minimal Inhibitory Concentrations
Procedure: as §1
(§3) Table S1. Susc eptibility testing of al l QC strains used in the study.
(§4) Mi n ima l In hibitory Concentrations (µg / ml) a […]

[21] = test system: Klebsiella pneumoniae ATCC 700603 (SHV-18, OXA-2); assay: microbe, parasite or virus in culture; assay type: cell-based; conditions: ATCC700603, read-out: Minimal Inhibitory Concentrations
Procedure: as §1, §3, §4

[22] = test system: Pseudomonas aeruginosa ATCC 27853 (inducible AmpC); assay: microbe, parasite or virus in culture; assay type: cell-based; conditions: ATCC27853, QC strain P. aeruginosa ATCC 27853, broth microdilution, Table S1, read-out: Minimal Inhibitory Concentrations
Procedure: as §1, §3, §4

[23] = ATCC25922, E. coli ATCC 25922, β-lactam alone or with inhibitor at fixed conc.: CLA 2 µg/mL, TZB, AVI, REL, NAC, ZID, DUR, TAN 4 µg/mL, VAB, XER, EMT 8 µg/mL, read-out: MICs

Sequence of ACT-17 (P05364 21-381): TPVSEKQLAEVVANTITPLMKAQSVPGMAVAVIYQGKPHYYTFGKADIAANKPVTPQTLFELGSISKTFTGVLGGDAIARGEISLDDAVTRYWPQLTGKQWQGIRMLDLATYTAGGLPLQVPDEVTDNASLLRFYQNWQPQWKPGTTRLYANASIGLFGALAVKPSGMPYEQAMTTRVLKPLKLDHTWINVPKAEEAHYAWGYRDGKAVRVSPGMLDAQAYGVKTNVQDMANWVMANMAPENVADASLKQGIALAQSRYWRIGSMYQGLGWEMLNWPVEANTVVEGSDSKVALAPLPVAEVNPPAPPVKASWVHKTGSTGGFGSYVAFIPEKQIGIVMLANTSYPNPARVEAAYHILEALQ
Sequence of SRT-1 (P18539 22-376): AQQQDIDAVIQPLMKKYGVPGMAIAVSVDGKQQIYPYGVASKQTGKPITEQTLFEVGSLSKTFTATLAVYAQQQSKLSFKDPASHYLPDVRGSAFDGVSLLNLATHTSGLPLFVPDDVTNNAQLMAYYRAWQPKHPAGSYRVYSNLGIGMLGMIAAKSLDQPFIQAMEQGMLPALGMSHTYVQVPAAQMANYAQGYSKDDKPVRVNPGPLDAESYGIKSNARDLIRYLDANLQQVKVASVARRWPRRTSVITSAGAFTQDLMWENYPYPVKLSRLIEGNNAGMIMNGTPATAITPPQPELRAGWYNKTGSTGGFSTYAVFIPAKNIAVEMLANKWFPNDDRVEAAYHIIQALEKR
T4 sequence (P24735 27-397 R79Q/T105A): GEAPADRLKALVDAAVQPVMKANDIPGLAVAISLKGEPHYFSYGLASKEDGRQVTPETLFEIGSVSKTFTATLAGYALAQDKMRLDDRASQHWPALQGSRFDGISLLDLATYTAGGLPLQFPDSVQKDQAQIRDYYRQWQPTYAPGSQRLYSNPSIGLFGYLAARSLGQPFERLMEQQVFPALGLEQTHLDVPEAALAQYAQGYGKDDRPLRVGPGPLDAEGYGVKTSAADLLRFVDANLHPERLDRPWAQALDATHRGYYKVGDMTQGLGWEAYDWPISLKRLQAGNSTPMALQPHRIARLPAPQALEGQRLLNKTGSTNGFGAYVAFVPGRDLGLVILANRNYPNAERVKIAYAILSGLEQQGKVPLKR
T3 sequence (P24735 27-397): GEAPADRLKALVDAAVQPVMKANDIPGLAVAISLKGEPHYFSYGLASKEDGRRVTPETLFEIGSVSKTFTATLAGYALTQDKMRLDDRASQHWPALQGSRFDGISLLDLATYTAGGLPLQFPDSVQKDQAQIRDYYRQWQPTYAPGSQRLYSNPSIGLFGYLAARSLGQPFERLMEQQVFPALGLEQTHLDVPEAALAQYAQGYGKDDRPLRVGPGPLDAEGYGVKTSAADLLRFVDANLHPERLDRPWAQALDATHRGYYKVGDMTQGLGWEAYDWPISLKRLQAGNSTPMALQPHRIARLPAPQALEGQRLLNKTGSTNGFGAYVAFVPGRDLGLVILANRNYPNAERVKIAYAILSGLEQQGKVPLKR
Sequence of ACC-1 (Q9XB24 entry or part of it): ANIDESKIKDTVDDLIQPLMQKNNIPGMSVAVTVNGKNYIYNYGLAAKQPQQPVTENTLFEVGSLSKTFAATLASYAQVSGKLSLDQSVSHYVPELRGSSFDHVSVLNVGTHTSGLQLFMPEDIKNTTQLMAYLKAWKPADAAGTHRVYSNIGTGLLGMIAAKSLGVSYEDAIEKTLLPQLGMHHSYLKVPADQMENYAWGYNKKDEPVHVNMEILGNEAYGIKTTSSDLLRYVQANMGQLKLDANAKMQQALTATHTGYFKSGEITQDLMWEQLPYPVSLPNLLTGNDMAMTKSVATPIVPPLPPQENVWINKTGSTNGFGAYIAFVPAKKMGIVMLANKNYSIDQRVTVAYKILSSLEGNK
T2 sequence (Q48434 21-381 V231S): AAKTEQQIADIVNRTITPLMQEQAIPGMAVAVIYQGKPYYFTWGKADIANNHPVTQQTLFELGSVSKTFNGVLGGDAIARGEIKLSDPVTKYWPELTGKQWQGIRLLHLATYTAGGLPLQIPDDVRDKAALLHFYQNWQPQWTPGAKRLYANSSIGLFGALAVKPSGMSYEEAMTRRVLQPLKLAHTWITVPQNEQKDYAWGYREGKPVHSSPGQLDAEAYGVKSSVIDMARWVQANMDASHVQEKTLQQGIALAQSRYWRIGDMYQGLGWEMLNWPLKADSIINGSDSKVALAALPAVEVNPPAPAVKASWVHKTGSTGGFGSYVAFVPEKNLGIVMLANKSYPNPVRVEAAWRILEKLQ
Sequence of Ear-1 (A0A0H3FRQ3 entry or part of it): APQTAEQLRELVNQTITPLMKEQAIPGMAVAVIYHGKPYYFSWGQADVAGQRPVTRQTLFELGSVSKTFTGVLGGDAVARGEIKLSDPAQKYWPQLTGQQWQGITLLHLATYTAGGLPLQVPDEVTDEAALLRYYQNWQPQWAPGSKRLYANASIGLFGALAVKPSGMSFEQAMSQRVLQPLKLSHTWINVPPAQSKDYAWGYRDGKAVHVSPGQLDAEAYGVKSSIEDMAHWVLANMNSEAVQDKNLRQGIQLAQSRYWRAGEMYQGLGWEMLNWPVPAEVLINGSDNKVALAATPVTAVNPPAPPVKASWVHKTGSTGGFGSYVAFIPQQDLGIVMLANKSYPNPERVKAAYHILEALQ
Sequence of FOX-5 (Q9F4K3 entry or part of it): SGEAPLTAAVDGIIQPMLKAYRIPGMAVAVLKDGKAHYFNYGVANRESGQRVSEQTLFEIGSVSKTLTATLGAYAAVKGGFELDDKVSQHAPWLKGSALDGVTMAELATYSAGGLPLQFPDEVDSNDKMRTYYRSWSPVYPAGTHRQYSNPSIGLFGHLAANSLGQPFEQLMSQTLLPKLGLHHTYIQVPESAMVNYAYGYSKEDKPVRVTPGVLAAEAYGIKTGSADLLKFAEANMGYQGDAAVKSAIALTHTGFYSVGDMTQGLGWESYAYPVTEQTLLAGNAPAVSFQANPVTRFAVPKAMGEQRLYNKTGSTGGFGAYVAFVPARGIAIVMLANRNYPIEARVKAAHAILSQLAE
Sequence of MOX-2 (Q9L3G2 entry or part of it): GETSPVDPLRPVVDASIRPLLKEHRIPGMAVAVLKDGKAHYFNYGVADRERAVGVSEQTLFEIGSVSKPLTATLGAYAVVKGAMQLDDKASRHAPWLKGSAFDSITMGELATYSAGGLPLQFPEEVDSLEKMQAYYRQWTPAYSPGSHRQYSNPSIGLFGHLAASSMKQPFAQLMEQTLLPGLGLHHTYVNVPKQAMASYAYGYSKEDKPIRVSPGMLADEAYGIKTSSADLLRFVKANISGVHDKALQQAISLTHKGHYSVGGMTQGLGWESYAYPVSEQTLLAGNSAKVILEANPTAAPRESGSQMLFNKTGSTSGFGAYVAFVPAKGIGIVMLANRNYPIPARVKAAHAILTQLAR
Sequence of LAT-1 (Q48443 entry or part of it): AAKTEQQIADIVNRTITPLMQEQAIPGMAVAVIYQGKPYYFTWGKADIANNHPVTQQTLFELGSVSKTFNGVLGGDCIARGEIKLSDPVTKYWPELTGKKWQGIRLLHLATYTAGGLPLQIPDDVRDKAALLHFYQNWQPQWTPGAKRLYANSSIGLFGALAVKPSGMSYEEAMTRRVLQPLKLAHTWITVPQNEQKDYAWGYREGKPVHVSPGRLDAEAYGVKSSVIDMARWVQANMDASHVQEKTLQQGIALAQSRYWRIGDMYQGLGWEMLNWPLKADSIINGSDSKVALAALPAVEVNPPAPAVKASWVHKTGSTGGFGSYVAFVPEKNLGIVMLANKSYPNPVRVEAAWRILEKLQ
T1 sequence (Q48434 21-381): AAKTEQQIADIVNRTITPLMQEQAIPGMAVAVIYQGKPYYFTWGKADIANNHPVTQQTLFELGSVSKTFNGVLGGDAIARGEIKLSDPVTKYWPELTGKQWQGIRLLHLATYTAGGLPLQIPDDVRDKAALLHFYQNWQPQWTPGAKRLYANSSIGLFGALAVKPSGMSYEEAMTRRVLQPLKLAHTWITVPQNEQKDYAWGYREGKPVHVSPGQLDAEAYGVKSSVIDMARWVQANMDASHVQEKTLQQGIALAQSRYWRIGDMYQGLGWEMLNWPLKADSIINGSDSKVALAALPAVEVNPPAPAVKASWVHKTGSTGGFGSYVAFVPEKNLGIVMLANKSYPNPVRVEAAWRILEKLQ
Sequence of YRC-1 (Q20I87 entry or part of it): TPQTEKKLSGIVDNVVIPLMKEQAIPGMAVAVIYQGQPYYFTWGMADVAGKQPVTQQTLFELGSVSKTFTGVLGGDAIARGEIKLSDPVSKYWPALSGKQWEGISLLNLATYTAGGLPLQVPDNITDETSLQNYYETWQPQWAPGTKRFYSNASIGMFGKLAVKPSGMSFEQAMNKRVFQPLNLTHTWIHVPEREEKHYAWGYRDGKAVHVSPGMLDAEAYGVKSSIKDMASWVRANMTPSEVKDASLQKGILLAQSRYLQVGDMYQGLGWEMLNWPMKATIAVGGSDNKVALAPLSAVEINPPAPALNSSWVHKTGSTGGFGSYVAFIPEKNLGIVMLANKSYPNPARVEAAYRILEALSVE
Sequence of PDC-382 (P24735 27-397 T96I): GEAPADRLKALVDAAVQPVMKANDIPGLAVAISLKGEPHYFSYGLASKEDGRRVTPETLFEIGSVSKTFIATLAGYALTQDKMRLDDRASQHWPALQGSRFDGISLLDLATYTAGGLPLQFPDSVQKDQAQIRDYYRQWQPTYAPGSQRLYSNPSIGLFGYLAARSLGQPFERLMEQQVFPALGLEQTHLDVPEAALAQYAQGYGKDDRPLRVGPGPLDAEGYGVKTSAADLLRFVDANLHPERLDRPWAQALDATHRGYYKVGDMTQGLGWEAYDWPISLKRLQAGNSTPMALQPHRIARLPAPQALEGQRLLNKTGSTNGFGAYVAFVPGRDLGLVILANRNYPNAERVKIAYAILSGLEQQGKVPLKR

| Structure (SMILES) | MIC (E. coli ATCC 25922; [23]) [µg/mL] | MIC [2] [µg/mL] | MIC [3] [µg/mL] | MIC [4] [µg/mL] | MIC [5] [µg/mL] | MIC [6] [µg/mL] | MIC [7] [µg/mL] | MIC [8] [µg/mL] | MIC [9] [µg/mL] | MIC [10] [µg/mL] | MIC [11] [µg/mL] | MIC [12] [µg/mL] | MIC [13] [µg/mL] | MIC [14] [µg/mL] | MIC [15] [µg/mL] | MIC [16] [µg/mL] | MIC [18] [µg/mL] | MIC [19] [µg/mL] | other results |
| --- | --- | --- | --- | --- | --- | --- | --- | --- | --- | --- | --- | --- | --- | --- | --- | --- | --- | --- | --- |
| O=C(O)c1c(F)ccc2c1OB(O)[C@@H]1C[C@H]21 [Xeruborbactam, xeruborbactam] | – | – | – | – | – | – | – | – | – | – | – | – | – | – | – | – | – | – | IC50 (ACC-1): 90 nM; IC50 (FOX-5): 230 nM; IC50 (ACT-7): 290 nM; IC50 (ACT-17): 200 nM; IC50 (CMY-2): 280 nM; IC50 (CMY-42): 430 nM; IC50 (DHA-1): 160 nM; IC50 (LAT-1): 340 nM; IC50 (MOX-2): 260 nM; IC50 (MIR-17): 310 nM; IC50 (Ear-1): 220 nM; IC50 (SRT-1): 220 nM; IC50 (PDC-1): 670 nM; IC50 (PDC-5): 660 nM; IC50 (PDC-382): 320 nM; IC50 (ADC-50): 5400 nM; IC50 (ADC-50; listed as XER): 5000 nM; IC50 (YRC-1): 960 nM; MIC value of XER alone (E. coli TOP10 [1]): above 16 µg/mL |
| CC(C)(O/N=C(\C(=O)N[C@@H]1C(=O)N2C(C(=O)[O-])=C(C[n+]3ccccc3)CS[C@H]12)c1csc(N)n1)C(=O)O [Ceftazidime, ceftazidime] | 0.06 | 32 | 32 | 64 | > 256 | > 256 | 128 | > 256 | 8 | 64 | 4 | 0.5 | 0.5 | 2 | 1 | 4 | 8 | 64 | MIC (E. coli ATCC 25922; ATCC25922, QC strain E. coli ATCC 25922, Table S1, read-out: Minimal Inhibitory Concentrations): 0.06 µg/mL; MIC (E. coli TOP10 [17]; E. coli TOP10, broth microdilution, β-lactam alone or with inhibitor at fixed conc.: CLA 2 µg/mL, TZB, AVI, REL, NAC, ZID, DUR, TAN 4 µg/mL, VAB, XER, EMT 8 µg/mL, read-out: MICs): 0.25 µg/mL; MIC [20]: 256 µg/mL; MIC [21]: 64 µg/mL; MIC [22]: 2 µg/mL |
| CC1(C)S[C@@H]2[C@H](NC(=O)[C@H](N)c3ccc(O)cc3)C(=O)N2[C@H]1C(=O)O [Amoxicillin, amoxicillin] | 4 | 32 | 512 | 1020 | > 1020 | 1020 | 1020 | > 1020 | 8 | 512 | 128 | 8 | 16 | 16 | 16 | 128 | 512 | 512 | MIC (E. coli TOP10 [17]; TOP10, read-out: MICs): 1 µg/mL |
